In data set [1] the test system is IL-6 release in mouse spleen lymphocytes. Briefly: IL-6 release in mouse spleen lymphocytes (in vitro, ELISA). The class given is cell-based. The conditions noted are these: 10 μg/ml endotoxin, compound 50 μM, 24 hours, placebo = 100. The procedure:
(§1) Spleen lymphocytes were prepared as it follows. Mice were killed by an overdose of ether, and spleens were collected and maintained in a sterile RPMI medium (Sigma-Aldrich) containing 0.5% (vol/vol) L-glutamine and 0.5% (vol/vol) sterile endotoxin-free fetal calf serum (FCS). The spleens were opened and the content (whole cells) collected and diluted with RPMI.
(§2) After repeated washings, cells were suspended in 10 ml of RPMI containing 1% (vol/vol) streptomycin and 1% (vol/vol) penicillin. The suspension was then incubated at 37° C. for 24 hours, in an O2/CO2 atmosphere (95%/5% v/v). Monocytes were eliminated by adhesion, and lysis of red cells was obtained by suspension in a solution 0.15 mol/liter NH4Cl and 1 mmol/liter KHCO3. The resulting lymphocytes were resuspended in RPMI-FCS, incubated for 30 minutes at 37° C. with anti-FAS, anti-FASL, or anti-IL2 receptor monoclonal antibodies, and then washed twice with RPMI-FCS. Cells were then incubated with the FITC-conjugated secondary antibody for 30 mins at 4° C., washed twice, and resuspended in PBS/formaldehyde (0.5%). Control samples were treated with the FITC-conjugated secondary antibody only. Stained cells were analysed on a flow cytofluorimeter. Cells were gated using forward vs side scatter to exclude dead cells and debris.
(§3) Cells were transferred in plate and then 10 μg/ml endotoxin and each of the following compounds at a concentration of 50 μM added: • Placebo (no compound added); • Flurbiprofen; • NO-Flurbiprofen; the compound was prepared as described in ex. F1, above; • Indomethacin; • NO-indomethacin; the compound was prepared as described in the example on page 45 of WO 98/09948; • then it was incubated for 24 hours • IL-6 and TGF-β released in cell supernatant was measured by ELISA assay, taking as 100% release that of placebo group.
On the technique in general: In an ELISA, binding on a coated surface is turned into a signal by an enzyme label.

In data set [2] the test system is TGF-β release in mouse spleen lymphocytes. Briefly: TGF-β release in mouse spleen lymphocytes (in vitro, ELISA). As to conditions: 10 μg/ml endotoxin, compound 50 μM, 24 hours, placebo = 100. The class given is cell-based. How it is done:
as §1, §2, §3

In data set [3] the test system is TGFβ1 production in cellular chondrocyte cultures. Briefly: Stimulation of TGFβ1 production in chondrocyte cultures (CCL-64 growth inhibition bioassay of conditioned medium). The class given is cell-based. As to conditions: calf chondrocyte primary cultures, compound 10^−5 M, 24 hours; untreated control = 100. How it is done: The primary cultures have been kept in a DMEM culture medium (Dulbecco's modified Eagle medium) (high glucose) containing bovine fetal serum (10% vol.) and antibiotics at 37° C. and in air/CO2 atmosphere (95%/5% vol.) until reaching the culture confluence. A cell sample is kept as a control and not treated with the tested compounds.
At the end the cells have been washed 3 times with a medium free from serum and added with BSA (bovine serum albumin, 200 μg/ml) for 5, 30 and 60 minutes respectively and then incubated in a medium devoid of serum (1 ml) for further 6 hours. The conditioned medium has been collected, centrifuged and kept at −70° C. until the use.
Before the experiment, 0.5 ml of cellular culture supernatant have been acidified with HCl (0.1 ml, 1 N) and incubated at room temperature for 10 min, then neutralized with NaOH/HEPES (0.1 ml NaOH 1.2N/0.5 M).
CCL-64 cellular cultures lines in a proliferative state have been prepared as described in Jennings J. C., J. Cell. Physiol.
At the twentieth hour ^3H-timidine (0.5 μCi/ml), a cellular proliferation marker, which is incorporated in the DNA of the new cells has been added to the cultures. The cultures have then been incubated for 4 hours.
At the end the cells have been cold fixed (5° C.) with trichloroacetic acid 5% v/v, washed with the same solution and dissolved in NaOH (0.1 N). […] From the amount of incorporated timidine it is shown the amount of TGF-β1. The data reported in Table 1 are expressed in percentage of TGFβ1 produced in the samples treated with the tested compounds, compared with the untreated control.

Data set [4] concerns proteoglycan synthesis in human chondrocytes. Briefly: Proteoglycan synthesis in TNFα-treated human chondrocytes ([35S]-sulfate incorporation). The data set is classed as cell-based. As to conditions: TNFα 80 ng/ml, compound 100 μM, 24 hours, control without TNFα = 100, vehicle + TNFα = 22. The procedure:
(§4) Human chondrocytes were isolated by collagenase digestion from knee cartilage collected from patients undergoing knee replacement surgery. Only primary culture was used to avoid phenotype change of human chondrocytes. TNFα (80 ng/ml) was added to all but control cells. Test compounds were dissolved at a concentration 0.02% (w/v) in DMSO (vehicle).
(§5) The test compounds were incubated with cells at a 100 μM concentration for 24 hours.
Proteoglycan synthesis was determined by [^35S]-sulfate incorporation. Cells and supernatant were extracted with 4M guanidinium chloride and purified by Sephadex colums chromatography. The amount of [^35S]-sulfate was measured by liquid scintillation counter. Results were normalized by the amount of Dna in the sample and expressed as CPM/μg DNA (CPM=count per minute).

Another data set concerns type II collagen mRNA. Briefly: Type II collagen mRNA steady-state levels in human articular chondrocytes. The class given is cell-based. The conditions noted are these: human articular chondrocytes in hypoxia (5% v/v O2), with or without IL-1β, compound 10^−5M, 48 h. How it is done: The steady-state levels of mRNA for type II collagen and TGF-β type II receptor (TβRII) was evaluated in human articular chondrocytes (HAC), cultured in hypoxia (5% v/v O2). The cells were treated or not with interleukin-1β (IL-1β) an agent favouring OA pathology, and NO-NSAIDs, or the corresponding NSAIDs at 10^−5M for 48 h.

Data set [5] can be described thus: Hepatic tolerability in rats (plasma AST, ALT, bilirubin). The class given is in vivo. As to conditions: i.p., NO-paracetamol 1.4 g/Kg or paracetamol 1.16 g/Kg, plasma 6 hours after administration, % of control group (100%). The procedure: Groups of No. 10 rats have been treated i.p. with NO-paracetamol (1.4 g/Kg i.p.) or with paracetamol (1.16 g/Kg) or with the carrier (0.9% w/v NaCl containing 20% v/v di tween-20) (control group).
After 6 hours from the administration, the animals have been sacrificed, the blood has been collected and the plasma analyzed to determine the aspartate aminotransferase (AST) and alanine aminotransferase (ALT) and bilirubin concentrations. The results are reported in Table 2 and have been expressed in pecentage with respect to the values obtained in the control group (100%).

In data set [6] the test system is IL-6 release in human monocytes. Briefly: IL-6 release in human monocytes (ex-vivo study after oral subacute treatment). The conditions noted are these: healthy subjects, 100 mg twice a day oral for seven days; monocytes 4 hours after last treatment, 10 μg/ml endotoxin 24 hours, ELISA; placebo = 100. How it is done:
Twenty-four healthy subjects of both sexes were enrolled and randomised into three groups of 8 subjects each. Each group was administered as it follows: • placebo: vehicle (0.5% aqueous suspension of carboxymethyl cellulose); • flurbiprofen: 100 mg twice a day; • NO-flurbiprofen: 100 mg twice a day; the compound was prepared as described in example F1. The treatment lasted seven consecutive days (oral subacute treatment).
Monocytes from whole blood samples obtained before and 4 hours after the last treatment were prepared. Monocytes were extracted by positive selection using paramagnetic beads loaded with anti-CD11 antibody. Cells were then incubated with 10 μg/ml endotoxin for 24 hours, and IL-6 released in cell supernatant measured by ELISA assay.
Results are given as % in the confront of IL-6 release obtained in the placebo group.

The test system of another data set is human chondrocytes. Briefly: Cell proliferation of TNFα-treated human chondrocytes ([3H]-thymidine incorporation). As to conditions: TNFα 80 ng/ml, compound 100 μM, 24 hours, control without TNFα = 100, vehicle + TNFα = 50. The data set is classed as cell-based. How it is done: as §4, §5
Cell proliferation was determined by measuring [^3H]-thymidine incorporated into newly synthesized DNA. Cell viability was assessed by MTS assay kit.

Turning to `COc1ccc2c(c1)c(CC(=O)O)c(C)n2C(=O)c1ccc(Cl)cc1` [Indomethacin], in data set [1], the “IL-6 release % in the confront of placebo” value (shortened to “IL-6 release %”) was 90%. In data set [2], the “TGF-β release % in the confront of placebo” value (from here on “TGF-β release %”) turned out to be 70%.

Consider `CC(C(=O)OCCCCO[N+](=O)[O-])c1ccc(-c2ccccc2)c(F)c1` (stereo not drawn) [NO-Flurbiprofen, 2-fluoro-alpha-methyl[1,1′-biphenyl]-4-acetic acid 4-nitrooxybutylester], for which, in data set [3], the “% of produced TGFβ1” value is on record as 650%. The “IL-6 release %” value in data set [1] came out at 10%. The “TGF-β release %” value in data set [2] worked out at 150%. Further, the “Proteoglycan synthesis % in the confront of control” value (from here on “Proteoglycan synthesis %”) in data set [4] was determined as 70%. Moreover, the “Increase of type II collagen mRNA levels” value in the data set on type II collagen mRNA was “more than 100%”.

As to `CC(=O)Nc1ccc(OC(=O)CCCO[N+](=O)[O-])cc1` [NO-Paracetamol, 4-nitrooxybutanoic acid 4-acetylaminophenylester], the “% of produced TGFβ1” value in data set [3] is listed as 350%. In data set [5], this compound returned an AST of 160% and a Bilirubin of 136%.

On to `O=C(Cc1ccccc1Nc1c(Cl)cccc1Cl)OCCCCO[N+](=O)[O-]` [NO-Diclofenac, 2-[(2,6-dichlorophenyl)amino]benzenacetic acid 4-nitrooxybutyl ester], for which the “% of produced TGFβ1” value in data set [3] amounted to 550%.

Turning to `CC(C(=O)O)c1ccc(-c2ccccc2)c(F)c1` (stereo not drawn) [Flurbiprofen], the “% of produced TGFβ1” value in data set [3] worked out at 120%. The “IL-6 release %” value in data set [6] and in data set [1] was 100% throughout. The “TGF-β release %” value in data set [2] is listed as 115%. The “Cell proliferation % in the confront of control” value in the data set with human chondrocytes turned out to be 53%. The “Proteoglycan synthesis %” value in data set [4] is 26%. Moreover, the “Increase of type II collagen mRNA levels” value in the data set on type II collagen mRNA is “no significant effect”.

`CC(C)Cc1ccc(C(C)C(=O)O)cc1` (stereo not drawn) [Ibuprofen]: in the data set with human chondrocytes, the “Cell proliferation % in the confront of control” value was found to be 48%. Moreover, the “Proteoglycan synthesis %” value in data set [4] came out at 24%.

On to `CC(=O)Nc1ccc(O)cc1` [Paracetamol], for which, in data set [5], the ALT came out at 171%, the AST was determined as 330% and the Bilirubin was 200%.

As to `COc1ccc2c(c1)c(CC(=O)Oc1cccc(CO[N+](=O)[O-])c1)c(C)n2C(=O)c1ccc(Cl)cc1` [NO-indomethacin, 1-(4-Chlorobenzoyl)-5-methoxy-2-methyl-1H-indole-3-acetic acid 3-(nitrooxymethyl)phenyl ester], the “IL-6 release %” value in data set [1] is 20%. Moreover, the “TGF-β release %” value in data set [2] is reported as 130%.

Turning to `CC(=O)Oc1ccccc1C(=O)Oc1cccc(CO[N+](=O)[O-])c1` [NO-Aspirin, 2-acetyloxybenzoic acid 3-nitrooxymethyl phenyl ester], the “% of produced TGFβ1” value in data set [3] was found to be 600%.

With `CC(=O)Oc1ccccc1C(=O)O` [Aspirin], the “% of produced TGFβ1” value in data set [3] is 150%.

(Values after US20070010458A1, “Drugs for the arthritis treatment” (priority 2002, published 2007).)
